What all share (format): biochemical
In one experiment the target is T1, MMP 1 (Homo sapiens, UniProt P03956).
T1 construct: human recombinant fibroblast collagenase (truncated mw=18,828, WAR, Radnor)
T1 sequence (P03956 100-269 limits assumed): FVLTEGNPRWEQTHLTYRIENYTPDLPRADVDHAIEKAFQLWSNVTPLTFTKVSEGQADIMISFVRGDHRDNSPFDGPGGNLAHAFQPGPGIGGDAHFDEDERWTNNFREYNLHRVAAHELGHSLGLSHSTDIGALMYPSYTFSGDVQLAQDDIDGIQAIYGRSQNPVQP
As to the kind of experiment: In Vitro Collagenase Assay (human recombinant fibroblast collagenase, fluorogenic peptide substrate). Particulars: for IC50: read-out: MMP 1 IC 50. The procedure:
The assay is based on the cleavage of a peptide substrate ((Dnp-Pro-Cha-Gly-Cys(Me)-His-Ala-Lys(NMa)-NH2), Peptide International Inc.) by collagenase releasing the fluorescent NMa group which is quantitated on the fluorometer. Dnp quenches the NMa fluorescence in the intact substrate. […] Substrate is dissolved in methanol and stored frozen in 1 mM aliquots. […] For the assay, substrate is dissolved in HCBC buffer to a final concentration of 10 μM and collagenase to a final concentration of 5 nM. Compounds are dissolved in methanol, DMSO, or HCBC. The methanol and DMSO are diluted in HCBC to <1.0%. Compounds are added to the 96 well plate containing enzyme and the reaction is started by the addition of substrate.
The slope of the line is calculated and represents the reaction rate.
The mean (x±sem) of the control rate is calculated and compared for statistical significance (p<0.05) with drug-related rates using Dunnett's multiple comparison test.

Another experiment concerns the target T2, MMP 9 (Homo sapiens, UniProt P14780).
T2 construct: from tissue; host or cells: human neutrophils
As to the kind of experiment: In Vitro Gelatinase Assay (human neutrophil gelatinase B, thiopeptide substrate/DTNB). Particulars: for IC50: read-out: MMP 9 IC 50. The method, then: The assay is based on the cleavage of the thiopeptide substrate ((Ac-Pro-Leu-Gly(2 Mercapto-4 methyl-pentanoyl)-Leu-Gly-OEt), Bachem Bioscience) by the enzyme, gelatinase, releasing the substrate product which reacts colorimetrically with DTNB ((5,5′-dithio-bis(2-nitro-benzoic acid)). The enzyne activity is measured by the rate of the color increase. The thiopeptide substrate is made up fresh as a 20 mM stock in 100% DMSO and the DTNB is dissolved in 100% DMSO as a 100 mM stock and stored in dark at room temperature. Both the substrate and DTNB are diluted together to 1 mM with substrate buffer (50 mM HEPES pH 7.5, 5 mM CaCl2) before use.
The increase in OD405 is plotted and the slope of the line is calculated which represents the reaction rate.
The mean (x±sem) of the control rate is calculated and compared for statistical significance (p<0.05) with drug-treated rates using Dunnett's multiple comparison test.

Another experiment has as its target MMP 13 (Homo sapiens, UniProt P45452). As to the kind of experiment: MMP 13 inhibition (standard/manual test). Particulars: for IC50: read-out: MMP 13 IC 50.
The target of a further experiment is T3, TACE (Homo sapiens, UniProt P78536).
T3 construct: purchased Immunex
Briefly: Procedure for Measuring TACE Inhibition (fluorescent peptidyl substrate). The note with it: for IC50: read-out: TACE IC 50. The procedure: Using 96-well black microtiter plates, each well recieves a solution composed of 10 μL TACE (Immunex, final concentration 1 μg/mL), 70 μL Tris buffer, pH 7.4 containing 10% glycerol (final concentration 10 mM), and 10 μL of test compound solution in DMSO (final concentration, DMSO concentration <1%) and incubated for 10 minutes at room temperature. The reaction is initiated by addition of a fluorescent peptidyl substrate (final concentration 100 μM) to each well and then shaking on a shaker for 5 sec. The reaction is read (excitation 340 nm, emission 420 nm) for 10 min. and the increase in fluorescence over time is plotted as a linear line. The slope of the line is calculated and represents the reaction rate. […] The mean (x±sem) of the control rate is calculated and compared for statistical significance (p<0.05) with drug-treated rates using Dunnett's multiple comparison test.

We go through eleven compounds from US6342508B1, “N-hydroxy-2-(Alkyl,Aryl or Heteroaryl sulfanyl, sulfinyl or sulfonyl) 3-substituted alkyl, aryl or heteroarylamides as matrix metalloproteinase inhibitors” (American Cyanamid Company, priority 1997, dated 2002).

As a reminder, the inhibition is the share of the control response that was lost under treatment.

T3 sequence (P78536 215-824): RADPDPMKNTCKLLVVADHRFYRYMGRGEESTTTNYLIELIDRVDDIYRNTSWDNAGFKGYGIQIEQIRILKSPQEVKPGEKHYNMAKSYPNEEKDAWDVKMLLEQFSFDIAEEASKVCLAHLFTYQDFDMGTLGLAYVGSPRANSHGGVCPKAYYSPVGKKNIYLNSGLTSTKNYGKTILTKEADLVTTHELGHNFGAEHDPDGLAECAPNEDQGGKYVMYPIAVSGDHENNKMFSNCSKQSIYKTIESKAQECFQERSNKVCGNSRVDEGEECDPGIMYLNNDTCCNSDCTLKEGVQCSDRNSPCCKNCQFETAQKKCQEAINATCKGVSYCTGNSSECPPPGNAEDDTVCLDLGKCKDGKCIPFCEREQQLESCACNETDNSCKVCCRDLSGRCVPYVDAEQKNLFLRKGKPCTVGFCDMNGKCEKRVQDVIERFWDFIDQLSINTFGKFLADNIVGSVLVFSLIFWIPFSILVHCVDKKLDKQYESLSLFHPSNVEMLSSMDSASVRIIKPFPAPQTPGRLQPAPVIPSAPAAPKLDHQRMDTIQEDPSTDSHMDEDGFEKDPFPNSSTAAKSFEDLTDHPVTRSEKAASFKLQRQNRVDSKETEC
T2 sequence (P14780 94-707): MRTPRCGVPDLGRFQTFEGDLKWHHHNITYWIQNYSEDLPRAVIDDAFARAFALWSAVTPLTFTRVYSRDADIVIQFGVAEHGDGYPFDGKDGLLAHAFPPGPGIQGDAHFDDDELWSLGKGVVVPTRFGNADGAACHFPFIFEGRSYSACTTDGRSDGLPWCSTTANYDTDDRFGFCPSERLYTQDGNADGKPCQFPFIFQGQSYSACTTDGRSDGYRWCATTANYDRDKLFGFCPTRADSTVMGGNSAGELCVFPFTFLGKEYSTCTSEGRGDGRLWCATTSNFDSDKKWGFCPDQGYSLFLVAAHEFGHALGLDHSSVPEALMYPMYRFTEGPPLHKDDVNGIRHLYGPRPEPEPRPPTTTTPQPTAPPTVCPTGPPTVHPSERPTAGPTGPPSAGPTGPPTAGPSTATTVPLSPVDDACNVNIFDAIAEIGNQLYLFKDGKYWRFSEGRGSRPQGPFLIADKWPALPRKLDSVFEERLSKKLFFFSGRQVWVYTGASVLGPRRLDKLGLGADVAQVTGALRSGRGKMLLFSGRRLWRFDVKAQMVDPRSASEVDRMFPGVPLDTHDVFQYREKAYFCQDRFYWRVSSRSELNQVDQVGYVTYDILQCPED

For “2-(4-Methoxy-benzenesulfonyl)-4methyl-2-pyridin-ylmethyl-pentanoic acid hydroxyamide [Example 66]”, the IC50 at MMP 1 came out at 1600 nM; on MMP 9, 131 nM; on MMP 13, 226 nM. The “TACE % inhibition at 1 micromolar” value at TACE is recorded as 42.33%.

Turning to `CCCCC[C@H](C(=O)NO)[S@+]([O-])c1ccc(OC)cc1` (relative stereo) [Example 81a, 2R*-(4-methoxyphenyl-S*-sulfinyl)-heptanoic acid hydroxyamide], the IC50 stood at 2040 nM on MMP 1, 231 nM on MMP 9, 43.9 nM at MMP 13 and 27.1 nM at TACE.

Consider `COc1ccc(S(=O)(=O)C(C)(CC=C(C)C)C(=O)NO)cc1` (stereo not shown) [Example 13, 2-(4-Methoxy-benzenesulfonyl)-2-dimethyl-hex-4-enoic acid hydroxyamide], for which the IC50 on MMP 1 was 239 nM; at MMP 9, 11 nM; at MMP 13, 14 nM; at TACE, 626 nM.

With `CCN(CC)CCOc1ccc(CC(C)(C(=O)NO)S(=O)(=O)c2ccc(OC)cc2)cc1` (stereo not shown) [Example 21, N-Hydroxy-2-(4-methoxy-benzenesulfonyl)-2-methyl-3-[4-(2-N,N-diethylamino-ethoxy)-phenyl]-propionamide], the values for the IC50 on MMP 1, on MMP 9 and at MMP 13 were 318 nM, 13.2 nM and 15.3 nM, respectively. The inhibition at 1 µM at TACE (read-out: TACE % inhibition at 1 micromolar) was 39%.

On to `CCN(CC)CCOc1cccc(CC(C)(C(=O)NO)S(=O)(=O)c2ccc(OC)cc2)c1` (stereo not shown) [Example 29, N-Hydroxy-2-(4-methoxy-benzenesulfonyl)-2-methyl-3-[3-(2-N,N-diethylamino-ethoxy)-phenyl]-propionamide], for which the values for the IC50 at MMP 1, on MMP 9 and on MMP 13 were 297 nM, 4.3 nM and 3.6 nM, respectively. On TACE, the “TACE % inhibition at 1 micromolar” value came to 41%.

As to `CCCCCCC(Sc1ccc(OC)cc1)C(=O)NO` (stereo not shown) [Example 37, 2-(4-Methoxy-benzenesulfanyl)-octanoic acid hydroxyamide], the “MMP 1 % inhibition at 1 micromolar” value on MMP 1 is reported as 9%. For the same compound, the “MMP 9 % inhibition at 1 micromolar” value at MMP 9 is given as 31.6%. Moreover, the “MMP 13 % inhibition at 1 micromolar” value on MMP 13 is given as 14.3%. In addition, on TACE, the IC50 was found to be 87 nM.

Take `Cc1occc1S(=O)(=O)C(C)(Cc1ccccc1)C(=O)NO` (stereo not shown) [Example 43, 2-Methyl-2-(2-methyl-furan-3-sulfonyl)-3-phenyl-propionic acid hydroxamide]: at MMP 1, the “MMP 1 % inhibition at 1 micromolar” value is reported as 66.1%. Further, at MMP 9, the “MMP 9 % inhibition at 1 micromolar” value stood at 34.7%. For the same compound, the “MMP 13 % inhibition at 1 micromolar” value at MMP 13 was 55.5%. For the same compound, on TACE, the “TACE % inhibition at 1 micromolar” value came to 46.6%.

With `Cc1occc1S(=O)(=O)C(C)(Cc1ccc(OCCN2CCCCC2)cc1)C(=O)NO` (stereo not shown) [Example 44, 2-Methyl-2-(2-methyl-furan-3-sulfonyl)3-[4-(2-piperidin-1-yl-ethoxy)phenyl]-propionic acid hydroxamide], the “MMP 1 % inhibition at 1 micromolar” value at MMP 1 came out at 47.1%. The “MMP 9 % inhibition at 1 micromolar” value at MMP 9 is recorded as 36.9%. Further, on MMP 13, the “MMP 13 % inhibition at 1 micromolar” value turned out to be 39.5%. The “TACE % inhibition at 1 micromolar” value at TACE is reported as 14.9%.

With `CCCCCCCCS(=O)(=O)C(Cc1ccc(OCCN2CCCCC2)cc1)C(=O)NO` (stereo not shown) [Example 46, 2-(octane-1-sulfonyl)-3-[4-(2-piperidin-yl-ethoxy)-phenyl]propionic acid hydroxamide], the “MMP 1 % inhibition at 1 micromolar” value on MMP 1 was determined as 78.9%. Also, the “MMP 9 % inhibition at 1 micromolar” value on MMP 9 was 79.12%. On MMP 13, the “MMP 13 % inhibition at 1 micromolar” value is on record as 84.7%. The “TACE % inhibition at 1 micromolar” value at TACE was 1.4%.

Take `CC(Cc1ccc(OCCN2CCCCC2)cc1)(C(=O)NO)S(=O)(=O)c1ccc(Br)cc1` (stereo not shown) [Example 50, 2-(4Bromo-benzenesulfonyl)-2-methyl-3-[4-(2-piperdine-1-yl-ethoxy)-phenyl]-propionic acid hydroxanide]: the IC50 at MMP 1 was determined as 51.1 nM; at MMP 9, 58.4 nM; at MMP 13 it was 10.6 nM.

Consider `COc1ccc(S(=O)(=O)C2(C(=O)NO)CCN(CC=C(C)C)CC2)cc1` [Example 89, 4-(4methoxy-benzene-sulfonyl)-1-(3-methyl-but-2-enyl)-piperdine-4-carboxylic acid hydroxamide], for which the IC50 came to 1390 nM on MMP 1, 38.6 nM at MMP 9 and 7 nM on MMP 13. Also, on TACE, the “TACE % inhibition at 1 micromolar” value is given as 49%.
